Laboratory results: ChEMBL document CHEMBL1143344, “Novel DNA-directed alkylating agents: design, synthesis and potent antitumor effect of phenyl N-mustard-9-anilinoacridine conjugates via a carbamate or carbonate linker” (Bioorg Med Chem, 2009)
Activity calls are given as the source filed them. The rule behind the calls is not given here.

What was measured:
[1] = test system: MX1; experiment: Cytotoxicity against human MX1 cells after 72 hrs by SRB assay; format: functional, cell-based; settings: MX1, 72 h
[2] = test system: CCRF-CEM; experiment: Cytotoxicity against human CCRF-CEM cells after 72 hrs by XTT assay; format: functional, cell-based; settings: read-out: IC50
[3] = test system: CCRF-CEM; experiment: Ratio of IC50 for taxol-resistant human CCRF-CEM cells to IC50 for human CCRF-CEM cells; format: functional
[4] = test system: CCRF-CEM; experiment: Cytotoxicity against taxol-resistant human CCRF-CEM cells after 72 hrs by XTT assay; format: functional, cell-based
[5] = test system: CCRF-CEM; experiment: Ratio of IC50 for vinblastine-resistant human CCRF-CEM cells to IC50 for human CCRF-CEM cells; format: functional
[6] = test system: CCRF-CEM; experiment: Cytotoxicity against vinblastine-resistant human CCRF-CEM cells after 72 hrs by XTT assay; format: functional, cell-based
[7] = test system: HCT-116; experiment: Cytotoxicity against human HCT116 cells after 72 hrs by SRB assay; format: functional, cell-based; settings: HCT-116, 72 h
[8] = Cytotoxicity against human H1299 cells after 72 hrs by WST1 assay; format: functional, cell-based; settings: NCI-H1299, 72 h
[9] = test system: PC-3; experiment: Cytotoxicity against human PC3 cells after 72 hrs by WST1 assay; format: functional, cell-based; settings: PC-3, 72 h
[10] = Cytotoxicity against human CL1-5 cells after 72 hrs by WST1 assay; format: functional, cell-based; settings: CL1-5, 72 h
[11] = test system: MCF7; experiment: Cytotoxicity against human MCF7 cells after 72 hrs by WST1 assay; format: functional, cell-based; settings: MCF7, 72 h
[12] = Cytotoxicity against human CL1-0 cells after 72 hrs by WST1 assay; format: functional, cell-based; settings: CL1-0, 72 h
[13] = test system: MX1; experiment: Antitumor activity against human MX1 cells xenografted in athymic nude mouse assessed as total tumor remission at 50 mg/kg, iv administered q2d for 9 days measured after 35 days; format: functional, organism-based; design: dose 50 mg/kg
[14] = test system: MX1; experiment: Antitumor activity against human MX1 cells xenografted in athymic nude mouse assessed as total tumor remission at 50 mg/kg, iv administered q2d for 9 days measured after 33 days; format: functional, organism-based; design: dose 50 mg/kg
[15] = test system: HCT-116; experiment: Antitumor activity against human HCT116 cells xenografted in athymic nude mouse assessed as tumor growth inhibition at 50 mg/kg, iv administered q2d for 7 days; format: functional; design: scale not given: the % may be the effect or the level left
[16] = test system: MX1; experiment: Antitumor activity against human MX1 cells xenografted in athymic nude mouse assessed as total tumor remission at 50 mg/kg, iv administered q2d for 9 days measured after 29 days; format: functional, organism-based; design: dose 50 mg/kg
[17] = test system: MX1; experiment: Antitumor activity against human MX1 cells xenografted in athymic nude mouse assessed as total tumor remission at 50 mg/kg, iv administered q2d for 9 days measured after 31 days; format: functional, organism-based; design: dose 50 mg/kg
[18] = test system: Mus musculus; experiment: Toxicity in athymic nude mouse xenografted with human HCT116 cells assessed as body weight loss at 50 mg/kg, iv administered q2d for 7 days; format: organism-based, HCT-116; design: dose 50 mg/kg, route intravenous; settings: in vivo, 168 h
[19] = test system: MX1; experiment: Antitumor activity against human MX1 cells xenografted in athymic nude mouse assessed as total tumor remission at 100 mg/kg, iv administered qd for 6 days measured after 20 days; format: functional, organism-based; design: dose 100 mg/kg
[20] = test system: MX1; experiment: Antitumor activity against human MX1 cells xenografted in athymic nude mouse assessed as no tumor relapse at 100 mg/kg, iv administered qd for 6 days measured after 59 days; format: functional, organism-based; design: dose 100 mg/kg
[21] = test system: MX1; experiment: Antitumor activity against human MX1 cells xenografted in athymic nude mouse assessed as total tumor remission at 100 mg/kg, iv administered qd for 6 days measured after 22 days; format: functional, organism-based; design: dose 100 mg/kg

SMILES	IC50 [1] [nM]	IC50 [2] [nM]	Ratio IC50 [3]	IC50 [4] [nM]	Ratio IC50 [5]	IC50 [6] [nM]	IC50 [7] [nM]	IC50 [8] [nM]	IC50 [9] [nM]	IC50 [10] [nM]	IC50 [11] [nM]	IC50 [12] [nM]	other results
Cc1ccc(Nc2c3ccccc3nc3ccccc23)cc1NC(=O)Oc1ccc(N(CCCl)CCCl)cc1	214	76	2.8	216	2.1	158	434	–	–	–	–	–	–
CC(C)OC(=O)Nc1cc(COC(=O)Nc2ccc(N(CCCl)CCCl)cc2)cc(Nc2c3ccccc3nc3ccccc23)c1	1130	189	3.4	648	4	753	301	9170	16000	6630	7010	4000	–
Cc1ccc(Nc2c3ccccc3nc3c(C)cccc23)cc1NC(=O)Oc1ccc(N(CCCl)CCCl)cc1	286	132	1.3	169	1.2	157	607	–	–	–	–	–	Activity [13]: Active; Activity [14]: Active; Activity [15]: 89%; Activity [16]: Active; Activity [17]: Active; Activity [18]: 8%
CCOC(=O)Nc1cc(COC(=O)Nc2ccc(N(CCCl)CCCl)cc2)cc(Nc2c3ccccc3nc3ccccc23)c1	597	85	–	–	–	–	–	–	–	–	–	–	–
COc1cc(NC(=O)Oc2ccc(N(CCCl)CCCl)cc2)cc(Nc2c3ccccc3nc3ccccc23)c1	340	200	1.5	309	0.54	108	1710	–	–	–	–	–	Activity [19]: Active; Activity [20]: Active; Activity [21]: Active
CC[C@]1(O)C[C@@H]2CN(CCc3c([nH]c4ccccc34)[C@@](C(=O)OC)(c3cc4c(cc3OC)N(C)[C@H]3[C@@](O)(C(=O)OC)[C@H](OC(C)=O)[C@]5(CC)C=CCN6CC[C@]43[C@@H]65)C2)C1 [VINBLASTINE]	2.2	0.73	106.2	78	679.5	496	1.1	–	–	–	–	–	–
COc1ccc(Nc2c3ccccc3nc3c(C)cccc23)cc1NC(=O)Oc1ccc(N(CCCl)CCCl)cc1	138	24	1.1	27	7.9	190	238	357	1580	8850	3430	2250	–
COc1ccc(NC(=O)Oc2ccc(N(CCCl)CCCl)cc2)cc1Nc1c2ccccc2nc2c(C)cccc12	338	205	1	210	0.54	110	841	–	–	–	–	–	–
Cc1ccc(NC(=O)Oc2ccc(N(CCCl)CCCl)cc2)cc1Nc1c2ccccc2nc2c(C)cccc12	163	132	1.05	138	0.7	93	263	623	4470	10600	5710	4660	–
